In patent publication US20250381274A1 (priority 2022, published 2025):
Entries after “also recorded” stand apart in the source; their conditions may differ. Like-named read-outs stand apart in the source and are kept apart here.

Legend:
corneal buttons = test system: corneal buttons; design: species or system rabbit; details: for equilibrium modulus change vs paired control (words): Dresden protocol (riboflavin/R5P + UVA); for viscoelastic ratio change vs paired control (words): Dresden protocol (riboflavin/R5P + UVA) vs R5P-exposed-only control
Method: • 3 rabbits, (n=8 pairs of 3 mm biopsy punched corneal buttons) • Laser Treatments: • Fidelity II, 1069 nm, 450 mW • Focusing: Marker/spark around, not touching the tissue • Objective: ZEISS 40X, NA=0.1463 • Z: increments 20 μm, 5 layers (several intervals) • 1stlayer 15 μm below surface of focus sparking • XY: 10 μm zigzag grid, 3 mm radius circle • With ˜12 gram compression • Motor speed 2.6 mm/s, full circle treatments: ˜25*5 mins • Sample Preparation: • −3 mm biopsy punch (1BT) • not connected to IV system • Prior to LT: 30 mins in 20% w/w Dextran 500 in PBS • 30 mins in 20% w/w ribose in DPBS (˜1.7M) • Post LT: Trypan blue is used to mark endothelium side • Imaged on the same day in DPBS • Overnight storage in DPBS in 4C fridge • 3 hrs prior to indentation, in room temp PBS • Piuma nano-indentation: • For each cornea button, the average of up to 16 indentations are acquired as
• 3 rabbits, (n=10 pairs of 3 mm biopsy punched corneal buttons) • 3 mm biopsy punch • not connected to IV system • Treatment Protocol-1 hr submerged in 20% w/v Ribose for all samples • 1 hr of UV-A lamp irradiation (control was not under UV) • Post Treatment Trypan blue is used to mark endothelium side • Imaged on the same day in DPBS • Overnight storage in DPBS in 4C fridge • 3 hrs prior to indentation, in room temp PBS • Piuma nano-indentation: • For each cornea button, the average of up to 16 indentations are acquired as representative modulus • The average of the representative modulus are presented in appended FIGS. 1-25.
Nano-Indentation: The corneal buttons were stored in PBS in a 4C fridge overnight for hydration equilibrium. Indentations of 5 μm depth using 29-35 μm diameter spherical indenters were performed on the anterior surface of the cornea buttons to acquire 25-second load-relaxation curves. For each button, the average of up to 16 indentations was used as the representative result. The equilibrium modulus and the viscoelastic ratio, defined as equilibrium modulus over instantaneous modulus, were calculated and compared.
Nanoindentation: Indentations were performed on the anterior surface of the cornea buttons. The equilibrium modulus E∞, instantaneous modulus Eo, and the viscoelastic ratio E∞/Eo, were calculated and compared.
After overnight incubation in PBS at 4C to reach equilibrium hydration, corneal buttons in Group A were allowed to return to room temperature the next morning after the respective treatment days while glued to the bottom of a petri-dish with the anterior surface of the corneal button facing upward. A displacement-controlled indenter (Piuma, Optics 11, Amsterdam, The Netherlands) was used to perform micro-indentations on top of the sample surface submerged in PBS; for each sample, multiple tests were performed following an array of 16 equally spaced (4×4) contact points with a spacing of 100 μm to 150 μm, covering roughly a 0.4×0.4 mm^2 area at the center of each corneal button. A spherical glass probe with a 34 μm radius and 0.2 N/m stiffness was used for samples in Group 1A; another spherical glass probe with a 25.5 μm radius and 4.09 N/m stiffness was used for Group 1B, 1C, 1D, and 2C. The indentation process at each contact point was comprised of three consecutive steps of loading Piezo movement of 5 μm for 2 seconds, holding time of 5 s, and unloading for 2 seconds. The load-relaxation curves obtained after indenting each point were then processed using a viscoelastic model to obtain equilibrium modulus and viscoelastic ratio following a fitting algorithm developed by Oyen.

corneal tissues = experiment: Multiphoton/confocal imaging: autofluorescence and second harmonic generation signal; design: species or system rabbit; details: anterior 100 μm
From the text: • The grey value of the top 100 μm (11 Z-stacks) of the cornea button was summed; • The average of the grey value summations are presented in appended FIGS. 1-25. • […] • The average of the grey value summations and Representative images at ˜600*600*100 μm in x, y, z are presented in appended FIGS. 1-25. The autofluorescence and second harmonic generation (SHG) signals of the corneal tissues in Group A were investigated to reveal the presence of CxLs and structural changes in collagenous ECM after hydration equilibrium in PBS on the same night of individual treatment days. Imaging was performed with a Nikon TI Eclipse inverted microscope using a Ti: Sapphire laser Chameleon Ultra II at 860 nm as the light source and a Nikon Apo LWD 20× objective for focusing. The emission filter was set at the FITC channel (475-650 nm, peak 525 nm) for autofluorescence signal collection and at the DAPI channel (400-600 nm, peak at 457 nm) for SHG signal collection. The XY scanning area for each sample was 635 μm by 635 μm, and Z scanning was 100 μm deep with 10 μm increments (stack of 11 images per sample). The summation of the average grey value processed in Image J at each layer was used as the representative signal strength for each sample.

## Dextran
Corneal buttons; 20% Dextran + femtosecond laser 755-760 nm ~850 mW, coverslip, without oxygen
  equilibrium modulus change: significantly increased the equilibrium modulus of the cornea, but the magnitudes are small

## riboflavin-5-phosphate [R5P, reference compound]
Corneal buttons
  equilibrium modulus change vs paired control (words): statistically significant differences
  viscoelastic ratio change vs paired control (words): more elastic response; also recorded: significantly different time-dependent elastic response
Corneal buttons; listed as riboflavin
  viscoelastic ratio change vs paired control (words): significant increase; also recorded: significantly increased
  equilibrium modulus change vs paired control (words): significantly increased
Corneal buttons; Group 1D positive control: Dresden protocol, 0.1% R5P in 20% dextran 500 + UVA
  equilibrium modulus: 100 kPa
Corneal tissues; Dresden protocol vs R5P exposed control
  second harmonic generation signal intensity change vs paired control (words): increased SHG signal; also recorded: statistically significant increase; also recorded: Statistical significance
Corneal tissues; Dresden protocol vs R5P only control
  autofluorescence signal intensity change vs paired control (words): increased; also recorded: Statistical significance
